Test results from patent US20180037568A1, “MODULATORS OF METHYL MODIFYING ENZYMES, COMPOSITIONS AND USES THEREOF” (Constellation Pharmaceuticals, Inc., priority 2015, published 2018).
Where two headings read alike, the source gives them in different places.

Legend:
[1] = target: T1, PRC2 containing wt EZH2 (Homo sapiens, UniProt Q15910); assay: EZH2 pep BSA Brij 4.0 LowE (IC50): 3H-SAM incorporation into biotinylated H3 peptide; assay type: biochemical; settings: 20 pM PRC2 wt EZH2, 0.9 μM 3H-SAM, biotinylated H3 peptide substrate, 2 μM H3K27me3 activating peptide
T1 construct: made in house
T1 sequence (Q15910 whole entry): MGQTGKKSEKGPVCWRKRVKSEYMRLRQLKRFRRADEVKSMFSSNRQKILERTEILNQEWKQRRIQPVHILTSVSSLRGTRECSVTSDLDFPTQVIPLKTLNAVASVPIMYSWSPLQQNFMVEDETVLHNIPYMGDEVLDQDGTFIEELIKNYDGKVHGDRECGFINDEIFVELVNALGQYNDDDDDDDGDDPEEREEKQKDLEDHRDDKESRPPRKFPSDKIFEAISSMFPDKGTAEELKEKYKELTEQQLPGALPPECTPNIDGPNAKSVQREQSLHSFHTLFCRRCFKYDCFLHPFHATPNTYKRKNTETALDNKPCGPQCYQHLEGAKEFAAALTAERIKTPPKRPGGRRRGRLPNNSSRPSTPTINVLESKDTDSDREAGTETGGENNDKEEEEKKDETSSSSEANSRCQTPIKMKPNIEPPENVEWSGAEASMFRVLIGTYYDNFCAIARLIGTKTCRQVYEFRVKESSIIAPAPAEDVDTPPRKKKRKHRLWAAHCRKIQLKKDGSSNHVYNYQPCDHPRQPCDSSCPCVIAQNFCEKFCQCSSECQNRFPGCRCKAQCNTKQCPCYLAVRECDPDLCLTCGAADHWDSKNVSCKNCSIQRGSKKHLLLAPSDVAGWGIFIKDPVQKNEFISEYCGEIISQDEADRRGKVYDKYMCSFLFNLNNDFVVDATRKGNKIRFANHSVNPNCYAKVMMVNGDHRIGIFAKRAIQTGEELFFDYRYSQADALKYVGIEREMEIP
T1 sequence (O75530 whole entry partner): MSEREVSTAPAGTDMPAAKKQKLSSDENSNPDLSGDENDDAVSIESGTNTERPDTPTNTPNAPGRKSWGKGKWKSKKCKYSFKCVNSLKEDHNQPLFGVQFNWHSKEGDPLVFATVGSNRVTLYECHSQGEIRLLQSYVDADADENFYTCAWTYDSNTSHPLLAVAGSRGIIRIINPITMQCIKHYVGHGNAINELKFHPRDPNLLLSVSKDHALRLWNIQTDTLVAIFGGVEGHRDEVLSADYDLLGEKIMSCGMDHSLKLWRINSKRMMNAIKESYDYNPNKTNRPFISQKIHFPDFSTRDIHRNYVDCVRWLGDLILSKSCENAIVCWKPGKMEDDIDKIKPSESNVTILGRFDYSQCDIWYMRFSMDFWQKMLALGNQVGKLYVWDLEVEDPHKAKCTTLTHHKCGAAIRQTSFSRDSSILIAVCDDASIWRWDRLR
T1 sequence (Q15022 whole entry partner): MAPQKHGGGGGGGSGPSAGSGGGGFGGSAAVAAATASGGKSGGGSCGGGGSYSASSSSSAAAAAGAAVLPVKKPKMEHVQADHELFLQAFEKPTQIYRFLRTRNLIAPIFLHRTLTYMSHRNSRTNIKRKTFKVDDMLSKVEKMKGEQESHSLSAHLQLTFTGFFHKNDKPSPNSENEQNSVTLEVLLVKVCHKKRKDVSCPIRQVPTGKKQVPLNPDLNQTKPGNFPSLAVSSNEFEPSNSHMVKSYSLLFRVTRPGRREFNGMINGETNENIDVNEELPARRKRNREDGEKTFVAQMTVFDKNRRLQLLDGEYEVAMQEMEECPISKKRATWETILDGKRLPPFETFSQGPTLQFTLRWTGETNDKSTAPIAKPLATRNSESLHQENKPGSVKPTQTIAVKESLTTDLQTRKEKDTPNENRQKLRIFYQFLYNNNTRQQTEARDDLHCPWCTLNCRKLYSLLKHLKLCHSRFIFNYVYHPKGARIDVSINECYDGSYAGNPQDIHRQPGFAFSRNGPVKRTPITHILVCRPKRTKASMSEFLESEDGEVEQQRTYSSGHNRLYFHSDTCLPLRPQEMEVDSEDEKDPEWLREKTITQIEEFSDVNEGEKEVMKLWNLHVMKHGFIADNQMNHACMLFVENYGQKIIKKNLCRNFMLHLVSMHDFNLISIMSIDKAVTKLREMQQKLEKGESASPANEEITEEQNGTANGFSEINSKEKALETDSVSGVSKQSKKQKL
T1 sequence (Q09028 whole entry partner): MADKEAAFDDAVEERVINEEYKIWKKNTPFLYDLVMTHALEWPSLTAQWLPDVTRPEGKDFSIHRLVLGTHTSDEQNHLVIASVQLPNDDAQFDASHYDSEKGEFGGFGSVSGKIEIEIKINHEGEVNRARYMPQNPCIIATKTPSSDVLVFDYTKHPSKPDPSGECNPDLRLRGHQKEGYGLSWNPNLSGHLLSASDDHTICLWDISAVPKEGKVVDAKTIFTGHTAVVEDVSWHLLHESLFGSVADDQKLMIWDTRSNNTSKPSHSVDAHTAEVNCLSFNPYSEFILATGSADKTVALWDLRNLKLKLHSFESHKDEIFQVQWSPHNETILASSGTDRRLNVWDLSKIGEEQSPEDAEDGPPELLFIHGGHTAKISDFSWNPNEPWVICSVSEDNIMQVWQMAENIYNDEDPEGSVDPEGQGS
T1 sequence (Q6ZN18 whole entry partner): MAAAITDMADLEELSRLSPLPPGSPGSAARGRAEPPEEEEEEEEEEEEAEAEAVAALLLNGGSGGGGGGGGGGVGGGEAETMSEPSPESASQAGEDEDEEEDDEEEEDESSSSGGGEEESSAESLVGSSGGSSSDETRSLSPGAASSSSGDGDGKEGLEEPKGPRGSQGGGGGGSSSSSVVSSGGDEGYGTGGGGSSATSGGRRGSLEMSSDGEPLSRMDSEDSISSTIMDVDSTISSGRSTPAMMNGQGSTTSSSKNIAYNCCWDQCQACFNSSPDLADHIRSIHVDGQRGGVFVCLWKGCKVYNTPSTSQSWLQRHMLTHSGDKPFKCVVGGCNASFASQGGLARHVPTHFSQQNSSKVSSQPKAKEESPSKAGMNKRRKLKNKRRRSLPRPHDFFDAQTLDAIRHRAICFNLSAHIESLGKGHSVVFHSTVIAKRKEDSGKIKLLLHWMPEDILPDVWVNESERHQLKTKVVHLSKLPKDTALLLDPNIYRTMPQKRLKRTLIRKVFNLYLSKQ
Outline: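 PRC2 (wt EZH2, 20 pM) pre-incubated 120 min with compound, 0.9 μM 3H-SAM and 2 μM H3K27me3 activating peptide in pH 8.5 Tris/DTT/Brij-35/0.1% BSA, 0.8% DMSO. Biotinylated H3K27me1 peptide added (2 μM stock), 5 h at room temperature, EDTA/SAH quench, streptavidin Flashplate capture. IC50 from four-parameter fit versus full-activity and no-enzyme controls.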

[2] = test system: H3K27me3 mark; assay: H3K27me3 Alpha Hela Assay (AlphaLISA); assay type: cell-based; settings: Hela cells, read-out: EZH2 Cell H3K27me3 Alpha HeLa (EC50 K27me3)
Outline: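 HeLa cells at 1,000/well were treated with ten 3-fold compound doses for 72 h at 37 °C. After lysis and histone extraction, H3K27me3 was detected by AlphaLISA with anti-K27me3 acceptor beads, biotinylated anti-H3 (C-ter) antibody (3 nM final) and streptavidin donor beads (20 μg/mL final). Signals were normalized to DMSO and curve-fitted for EC50.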

[3] = target: EZH2 (Homo sapiens, UniProt Q15910); assay: EZH2 nuc BSA Brij 1.5 (IC50): rPRC2, biotinylated oligonucleosome substrate, 3H SAM FlashPlate; assay type: biochemical
EZH2, sequence (Q15910 whole entry): as the sequence (Q15910 whole entry) above
EZH2, sequence (O75530 whole entry partner): as the sequence (O75530 whole entry partner) above
EZH2, sequence (Q15022 whole entry partner): as the sequence (Q15022 whole entry partner) above
Protocol: EZH2 Nuc BSA Brij 1.5 (IC50):
Assays were carried out by mixing rPRC2 together with biotinylated oligonucleosome substrates in the presence of the radio-labeled enzyme co-factor, S-adenosyl-L-methionine (^3H SAM) (Perkin Elmer) and monitoring the enzymatically mediated transfer of tritiated methyl groups from ^3H SAM to histone lysine residues. The amount of resulting tritiated methyl histone product was measured by first capturing the biotinylated oligonucleosomes in streptavidin (SAV) coated FlashPlates (Perkin Elmer), followed by a wash step to remove un-reacted ^3H SAM, and then counting on a TopCount NXT 384 well plate scintillation counter (Perkin Elmer). The final assay conditions for EZH2 were as follows: 50 mM Tris Buffer pH 8.5, 1 mM DTT, 69 μM Brij-35 detergent, 5.0 mM MgCl2, 0.1 mg/mL BSA, 0.2 μM ^3H SAM, 0.2 μM biotinylated oligonucleosomes, 3.6 μM H3K27me3 peptide and 2 nM EZH2.
Compound IC50 Measurements were Obtained as Follows:
Compounds were first dissolved in 100% DMSO as 10 mM stock solutions. Ten point dose response curves were generated by dispensing varying amounts of the 10 mM compound solution in 10 wells of the 384 well plate (Echo; Labcyte), pure DMSO was then used to backfill the wells to insure all wells have the same amount of DMSO. A 12.5 μL volume of the HMT enzyme, H3K27me3 peptide and oligonucleosome substrate in assay buffer was added to each well of the assay plate using a Multidrop Combi (ThermoFisher). Compounds were pre-incubated with the enzyme for 20 min, followed by initiation of the methyltransferase reaction by addition of 12.5 μL of ^3H SAM in assay buffer (final volume=25 μL). The final concentrations of compounds ranged from a top default concentration of 80 μM down to 0.16 μM in ten 2-fold dilution steps. Reactions were carried out for 60 minutes and quenched with 20 μL per well of 1.96 mM SAH, 50 mM Tris pH 8.5, 200 mM EDTA. Stopped reactions were transferred to SAV coated Flashplates (Perkin Elmer), incubated for 120 min, washed with a plate washer, and then read on the TopCount NXT (1.0 min/well) to measure the amount of methyl histone product formed during the reaction. The amount of methyl histone product was compared with the amount of product formed in the 0% and 100% inhibition control wells allowing the calculation of % Inhibition in the presence of the individual compounds at various concentrations. IC50's were computed using a 4 parameter fit non-linear curve fitting software package (XLFIT, part of the database package, ActivityBase (IDBS)) where the four parameters were IC50, Hill slope, pre-transitional baseline (0% INH), and post-transitional baseline (100% INH); with the latter two parameters being fixed to zero and 100%, respectively, by default.

[4] = EZH2 pep BSA Brij 4.0 LowE (IC50)
[5] = EZH2 nuc BSA Brij 1.5 (IC50), 2 nM EZH2, 0.2 μM biotinylated oligonucleosomes, 0.2 μM 3H SAM, 3.6 μM H3K27me3 peptide

SMILES	IC50 [1, 4] [nM]	EC50 ([2]; Homo sapiens, HeLa, 72 h) [nM]	IC50 [3, 5] [nM]	EC50 ([2]; 72 hrs) [nM]	IC50 ([3]; read-out: EZH2 nuc BSA Brij 1.5 (IC50); 2 nM EZH2, 0.2 μM biotinylated oligonucleosomes, 0.2 μM 3H SAM, 3.6 μM H3K27me3 peptide) [nM]	IC50 ([1]; read-out: EZH2 pep BSA Brij 4.0 LowE (IC50)) [nM]	IC50 ([3]; 2 nM EZH2, 0.2 μM biotinylated oligonucleosomes, 0.2 μM 3H SAM, 3.6 μM H3K27me3 peptide; read-out: EZH2 nuc BSA Brij 1.5 (IC50)) [nM]
COc1cc(C)[nH]c(=O)c1CNC(=O)c1c(C)n(C(C)C2CCN(CC(F)F)C(C)C2)c2ccccc12 (single isomer, unassigned) [Compound 40, 1-(1-(1-(2,2-difluoroethyl)-2-methylpiperidin-4-yl)ethyl)-N-((4-methoxy-6-methyl-2-oxo-1,2-dihydropyridin-3-yl)methyl)-2-methyl-1H-indole-3-carboxamide]	< 100	< 400	< 100				
COc1cc(C)[nH]c(=O)c1CNC(=O)c1c(C)n(C(C)C2CCN(CC(F)(F)F)C(C)C2)c2ccccc12 (single isomer, unassigned) [Compound 43, N-((4-methoxy-6-methyl-2-oxo-1,2-dihydropyridin-3-yl)methyl)-2-methyl-1-(1-(2-methyl-1-(2,2,2-trifluoroethyl)piperidin-4-yl)ethyl)-1H-indole-3-carboxamide]	< 100			< 400	< 100		
COc1cc(C)[nH]c(=O)c1CNC(=O)c1c(C)n(C(C)C2CCN(C3COC3)CC2C(F)(F)F)c2ccccc12 (stereo not drawn) [Compound 8, N-((4-methoxy-6-methyl-2-oxo-1,2-dihydropyridin-3-yl)methyl)-2-methyl-1-(1-(1-(oxetan-3-yl)-3-(trifluoromethyl)piperidin-4-yl)ethyl)-1H-indole-3-carboxamide]	< 100	> 2000	< 100				
COc1cc(C)[nH]c(=O)c1CNC(=O)c1c(C)n(C(C)C2CCN(C)C(c3ccc(F)cc3)C2)c2ccccc12 (stereo not drawn) [Compound 33, 1-(1-(2-(4-fluorophenyl)-1-methylpiperidin-4-yl)ethyl)-N-((4-methoxy-6-methyl-2-oxo-1,2-dihydropyridin-3-yl)methyl)-2-methyl-1H-indole-3-carboxamide]		400 to 2000				< 100	< 100
